Test results from patent US6916812B2, “Alpha-aminoamide derivatives as melanocortin agonists” (Bristol-Myers Squibb Company, priority 2001, dated 2005).

Target: T1, cloned human MC4R (Homo sapiens, UniProt P32245)
T1 construct: made in house; host or cells: Hi5 insect cells (baculovirus infection); membrane preparation
Test: Membrane binding assay: competitive inhibition of [125I]NDP-α-MSH binding
Details: for Displacement Rate (%) (at 10 μM) / inhibition at 10 µM: [125I]NDP-α-MSH displacement; for IC50: read-out: MC4R IC50; for inhibition at 10 µM: read-out: Displacement Rate (%) (at 10 μM)

T1 sequence (P32245 whole entry): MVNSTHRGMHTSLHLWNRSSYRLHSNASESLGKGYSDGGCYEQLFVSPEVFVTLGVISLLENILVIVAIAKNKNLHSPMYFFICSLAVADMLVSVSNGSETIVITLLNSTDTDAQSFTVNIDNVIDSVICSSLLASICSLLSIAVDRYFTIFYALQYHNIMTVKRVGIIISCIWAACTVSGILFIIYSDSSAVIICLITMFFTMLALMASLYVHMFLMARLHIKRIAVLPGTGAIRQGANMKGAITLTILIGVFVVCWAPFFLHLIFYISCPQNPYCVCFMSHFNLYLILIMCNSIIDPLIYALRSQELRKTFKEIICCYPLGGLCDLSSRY

Structure (SMILES): COc1cc(COc2ccc(C[C@H](N)C(=O)N3CCN(Cc4cccc(Cl)c4Cl)CC3)cc2)cc(OC)c1 [Example 194]
- Displacement Rate (%) (at 10 μM): +++ (+++ = 91-100)
- IC50: 1.5 to 3 µM

Structure (SMILES): CC(C)c1ccc(COc2ccc(C[C@H](N)C(=O)N3CCN(Cc4cccc(Cl)c4Cl)CC3)cc2)cc1 [Example 195]
- Displacement Rate (%) (at 10 μM): +++ (+++ = 91-100)
- IC50: < 1.5 µM

Structure (SMILES): N[C@@H](Cc1ccc(OCc2ccc(F)cc2F)cc1)C(=O)N1CCN(Cc2cccc(Cl)c2Cl)CC1 [Example 196]
- Displacement Rate (%) (at 10 μM): +++ (+++ = 91-100)
- IC50: < 1.5 µM

Structure (SMILES): N[C@@H](Cc1ccc(OCc2cccc(Br)c2)cc1)C(=O)N1CCN(Cc2cccc(Cl)c2Cl)CC1 [Example 197]
- Displacement Rate (%) (at 10 μM): +++ (+++ = 91-100)
- IC50: < 1.5 µM

Structure (SMILES): N[C@@H](Cc1ccc(OCc2ccc(-c3ccccc3)cc2)cc1)C(=O)N1CCN(Cc2cccc(Cl)c2Cl)CC1 [Example 198]
- Displacement Rate (%) (at 10 μM): +++ (+++ = 91-100)
- IC50: < 1.5 µM

Structure (SMILES): N[C@@H](Cc1ccc(OCc2cc(C(F)(F)F)cc(C(F)(F)F)c2)cc1)C(=O)N1CCN(Cc2cccc(Cl)c2Cl)CC1 [Example 199]
- Displacement Rate (%) (at 10 μM): +++ (+++ = 91-100)
- IC50: 1.5 to 3 µM

Structure (SMILES): N[C@@H](Cc1ccc(OCc2ccc(Cl)cc2Cl)cc1)C(=O)N1CCN(Cc2cccc(Cl)c2Cl)CC1 [Example 200]
- Displacement Rate (%) (at 10 μM): +++ (+++ = 91-100)
- IC50: < 1.5 µM

Structure (SMILES): CC(C)(C)c1ccc(COc2ccc(C[C@H](N)C(=O)N3CCN(Cc4cccc(Cl)c4Cl)CC3)cc2)cc1 [Example 201]
- Displacement Rate (%) (at 10 μM): +++ (+++ = 91-100)
- IC50: < 1.5 µM

Structure (SMILES): Cc1ccc(C)c(COc2ccc(C[C@H](N)C(=O)N3CCN(Cc4cccc(Cl)c4Cl)CC3)cc2)c1 [Example 202]
- Displacement Rate (%) (at 10 μM): +++ (+++ = 91-100)
- IC50: 1.5 to 3 µM

Structure (SMILES): COc1cccc(COc2ccc(C[C@H](N)C(=O)N3CCN(Cc4cccc(Cl)c4Cl)CC3)cc2)c1 [Example 203]
- Displacement Rate (%) (at 10 μM): +++ (+++ = 91-100)
- IC50: 1.5 to 3 µM

Structure (SMILES): N[C@@H](Cc1ccc(OCc2ccc(Cl)c(Cl)c2)cc1)C(=O)N1CCN(Cc2cccc(Cl)c2Cl)CC1 [Example 204]
- Displacement Rate (%) (at 10 μM): +++ (+++ = 91-100)
- IC50: < 1.5 µM

Structure (SMILES): N[C@@H](Cc1ccc(OCc2c(F)cccc2F)cc1)C(=O)N1CCN(Cc2cccc(Cl)c2Cl)CC1 [Example 205]
- Displacement Rate (%) (at 10 μM): +++ (+++ = 91-100)
- IC50: 1.5 to 3 µM

Structure (SMILES): N[C@@H](Cc1ccc(OCc2cccc(OCc3ccccc3)c2)cc1)C(=O)N1CCN(Cc2cccc(Cl)c2Cl)CC1 [Example 206]
- Displacement Rate (%) (at 10 μM): +++ (+++ = 91-100)
- IC50: < 1.5 µM

Structure (SMILES): N[C@@H](Cc1ccc(OCc2ccc(OCc3ccccc3)cc2)cc1)C(=O)N1CCN(Cc2cccc(Cl)c2Cl)CC1 [Example 208]
- Displacement Rate (%) (at 10 μM): +++ (+++ = 91-100)
- IC50: 1.5 to 3 µM

Structure (SMILES): CCOc1ccc(COc2ccc(C[C@H](N)C(=O)N3CCN(Cc4cccc(Cl)c4Cl)CC3)cc2)cc1 [Example 209]
- inhibition at 10 µM: 91 to 100%
- IC50: 1.5 to 3 µM

Structure (SMILES): N[C@@H](Cc1ccc(OCc2ccccc2Cl)cc1)C(=O)N1CCN(Cc2cccc(Cl)c2Cl)CC1 [Example 210]
- Displacement Rate (%) (at 10 μM): +++ (+++ = 91-100)
- IC50: 1.5 to 3 µM

Structure (SMILES): N[C@@H](Cc1ccc(OCc2cc(Cl)ccc2Cl)cc1)C(=O)N1CCN(Cc2cccc(Cl)c2Cl)CC1 [Example 212]
- Displacement Rate (%) (at 10 μM): +++ (+++ = 91-100)
- IC50: < 1.5 µM

Structure (SMILES): Cc1cccc(COc2ccc(C[C@H](N)C(=O)N3CCN(Cc4cccc(Cl)c4Cl)CC3)cc2)c1 [Example 213]
- Displacement Rate (%) (at 10 μM): +++ (+++ = 91-100)
- IC50: < 1.5 µM

Structure (SMILES): N[C@@H](Cc1ccc(OCc2ccccc2-c2ccccc2)cc1)C(=O)N1CCN(Cc2cccc(Cl)c2Cl)CC1 [Example 214]
- Displacement Rate (%) (at 10 μM): +++ (+++ = 91-100)
- IC50: < 1.5 µM

Structure (SMILES): N[C@@H](Cc1ccc(OCc2ccccc2Cc2ccccc2)cc1)C(=O)N1CCN(Cc2cccc(Cl)c2Cl)CC1 [Example 215]
- Displacement Rate (%) (at 10 μM): +++ (+++ = 91-100)
- IC50: < 1.5 µM

Structure (SMILES): Cc1ccccc1COc1ccc(C[C@H](N)C(=O)N2CCN(Cc3cccc(Cl)c3Cl)CC2)cc1 [Example 216]
- Displacement Rate (%) (at 10 μM): +++ (+++ = 91-100)
- IC50: 1.5 to 3 µM

Structure (SMILES): N[C@@H](Cc1ccc(OCc2ccc3ccccc3c2)cc1)C(=O)N1CCN(Cc2cccc(Cl)c2Cl)CC1 [Example 217]
- Displacement Rate (%) (at 10 μM): +++ (+++ = 91-100)
- IC50: < 1.5 µM

Structure (SMILES): N[C@@H](Cc1ccc(OCc2cccc3ccccc23)cc1)C(=O)N1CCN(Cc2cccc(Cl)c2Cl)CC1 [Example 218]
- Displacement Rate (%) (at 10 μM): +++ (+++ = 91-100)
- IC50: 1.5 to 3 µM

Structure (SMILES): N[C@@H](Cc1ccc(OCc2ccc(Cl)c([N+](=O)[O-])c2)cc1)C(=O)N1CCN(Cc2cccc(Cl)c2Cl)CC1 [Example 219]
- Displacement Rate (%) (at 10 μM): +++ (+++ = 91-100)
- IC50: < 1.5 µM

Structure (SMILES): CCc1ccc(COc2ccc(C[C@H](N)C(=O)N3CCN(Cc4cccc(Cl)c4Cl)CC3)cc2)cc1 [Example 220]
- Displacement Rate (%) (at 10 μM): +++ (+++ = 91-100)
- IC50: < 1.5 µM

Structure (SMILES): CCOc1ccccc1COc1ccc(C[C@H](N)C(=O)N2CCN(Cc3cccc(Cl)c3Cl)CC2)cc1 [Example 221]
- Displacement Rate (%) (at 10 μM): +++ (+++ = 91-100)
- IC50: 1.5 to 3 µM

Structure (SMILES): N[C@@H](Cc1ccc(OCc2c(F)cccc2Cl)cc1)C(=O)N1CCN(Cc2cccc(Cl)c2Cl)CC1 [Example 222]
- Displacement Rate (%) (at 10 μM): +++ (+++ = 91-100)
- IC50: 1.5 to 3 µM

Structure (SMILES): N[C@@H](Cc1ccc(OCc2ccc([N+](=O)[O-])cc2)cc1)C(=O)N1CCN(Cc2cccc(Cl)c2Cl)CC1 [Example 223]
- Displacement Rate (%) (at 10 μM): +++ (+++ = 91-100)
- IC50: 1.5 to 3 µM

Structure (SMILES): CSc1ccc(COc2ccc(C[C@H](N)C(=O)N3CCN(Cc4cccc(Cl)c4Cl)CC3)cc2)cc1 [Example 224]
- Displacement Rate (%) (at 10 μM): ++ (++ = 71-90)
- IC50: 1.5 to 3 µM

Structure (SMILES): COc1ccc(COc2ccc(C[C@H](N)C(=O)N3CCN(Cc4cccc(Cl)c4Cl)CC3)cc2)cc1 [Example 225]
- Displacement Rate (%) (at 10 μM): ++ (++ = 71-90)
- IC50: > 3 µM

Structure (SMILES): N[C@@H](Cc1ccc(OCc2c(Cl)cccc2Cl)cc1)C(=O)N1CCN(Cc2cccc(Cl)c2Cl)CC1 [Example 226]
- Displacement Rate (%) (at 10 μM): ++ (++ = 71-90)
- IC50: 1.5 to 3 µM

Structure (SMILES): COc1ccc(OC)c(COc2ccc(C[C@H](N)C(=O)N3CCN(Cc4cccc(Cl)c4Cl)CC3)cc2)c1 [Example 227]
- Displacement Rate (%) (at 10 μM): ++ (++ = 71-90)
- IC50: > 3 µM

Structure (SMILES): COc1ccc(COc2ccc(C[C@H](N)C(=O)N3CCN(Cc4cccc(Cl)c4Cl)CC3)cc2)c(OC)c1 [Example 228]
- Displacement Rate (%) (at 10 μM): ++ (++ = 71-90)
- IC50: > 3 µM

Structure (SMILES): N[C@@H](Cc1ccc(OCc2cc3c(cc2[N+](=O)[O-])OCO3)cc1)C(=O)N1CCN(Cc2cccc(Cl)c2Cl)CC1 [Example 229]
- Displacement Rate (%) (at 10 μM): ++ (++ = 71-90)
- IC50: > 3 µM

Structure (SMILES): CCCCOc1ccc(COc2ccc(C[C@H](N)C(=O)N3CCN(Cc4cccc(Cl)c4Cl)CC3)cc2)cc1 [Example 230]
- Displacement Rate (%) (at 10 μM): ++ (++ = 71-90)
- IC50: 1.5 to 3 µM

Structure (SMILES): COc1ccccc1COc1ccc(C[C@H](N)C(=O)N2CCN(Cc3cccc(Cl)c3Cl)CC2)cc1 [Example 231]
- Displacement Rate (%) (at 10 μM): ++ (++ = 71-90)
- IC50: > 3 µM

Structure (SMILES): N[C@@H](Cc1ccc(OCc2c3ccccc3cc3ccccc23)cc1)C(=O)N1CCN(Cc2cccc(Cl)c2Cl)CC1 [Example 232]
- Displacement Rate (%) (at 10 μM): ++ (++ = 71-90)
- IC50: > 3 µM

Structure (SMILES): COc1cccc(COc2ccc(C[C@H](N)C(=O)N3CCN(Cc4cccc(Cl)c4Cl)CC3)cc2)c1OC [Example 233]
- Displacement Rate (%) (at 10 μM): + (+ = 35-70)
- IC50: > 3 µM

Structure (SMILES): COc1ccc(COc2ccc(C[C@H](N)C(=O)N3CCN(Cc4cccc(Cl)c4Cl)CC3)cc2)cc1OC [Example 234]
- Displacement Rate (%) (at 10 μM): + (+ = 35-70)
- IC50: > 3 µM

Structure (SMILES): N[C@@H](Cc1ccc(OCc2ccc3c(c2)OCO3)cc1)C(=O)N1CCN(Cc2cccc(Cl)c2Cl)CC1 [Example 235]
- Displacement Rate (%) (at 10 μM): + (+ = 35-70)
- IC50: > 3 µM

Structure (SMILES): COc1cc(COc2ccc(C[C@H](N)C(=O)N3CCN(Cc4cccc(Cl)c4Cl)CC3)cc2)cc(OC)c1OC [Example 236]
- Displacement Rate (%) (at 10 μM): + (+ = 35-70)

Structure (SMILES): Cc1ccccc1CCOc1ccc(C[C@H](N)C(=O)N2CCN(Cc3cccc(Cl)c3Cl)CC2)cc1 [Example 237]
- Displacement Rate (%) (at 10 μM): +++ (+++ = 91-100)
- IC50: < 1.5 µM

Structure (SMILES): N[C@@H](Cc1ccc(OCCc2ccccc2)cc1)C(=O)N1CCN(Cc2cccc(Cl)c2Cl)CC1 [Example 238]
- Displacement Rate (%) (at 10 μM): +++ (+++ = 91-100)
- IC50: < 1.5 µM

Structure (SMILES): Cc1ccc(CCOc2ccc(C[C@H](N)C(=O)N3CCN(Cc4cccc(Cl)c4Cl)CC3)cc2)cc1 [Example 239]
- Displacement Rate (%) (at 10 μM): +++ (+++ = 91-100)
- IC50: < 1.5 µM

Structure (SMILES): N[C@@H](Cc1ccc(OCCc2cccc(F)c2)cc1)C(=O)N1CCN(Cc2cccc(Cl)c2Cl)CC1 [Example 240]
- Displacement Rate (%) (at 10 μM): +++ (+++ = 91-100)
- IC50: < 1.5 µM

Structure (SMILES): N[C@@H](Cc1ccc(OCCc2ccc(Br)cc2)cc1)C(=O)N1CCN(Cc2cccc(Cl)c2Cl)CC1 [Example 241]
- Displacement Rate (%) (at 10 μM): +++ (+++ = 91-100)
- IC50: < 1.5 µM

Structure (SMILES): N[C@@H](Cc1ccc(OCCc2ccccc2Cl)cc1)C(=O)N1CCN(Cc2cccc(Cl)c2Cl)CC1 [Example 242]
- Displacement Rate (%) (at 10 μM): +++ (+++ = 91-100)
- IC50: < 1.5 µM

Structure (SMILES): COc1cccc(CCOc2ccc(C[C@H](N)C(=O)N3CCN(Cc4cccc(Cl)c4Cl)CC3)cc2)c1 [Example 243]
- inhibition at 10 µM: 91 to 100%
- IC50: < 1.5 µM

Structure (SMILES): N[C@@H](Cc1ccc(OCCc2cccc3ccccc23)cc1)C(=O)N1CCN(Cc2cccc(Cl)c2Cl)CC1 [Example 244]
- Displacement Rate (%) (at 10 μM): +++ (+++ = 91-100)
- IC50: < 1.5 µM

Structure (SMILES): N[C@@H](Cc1ccc(OCCc2ccc(Cl)cc2)cc1)C(=O)N1CCN(Cc2cccc(Cl)c2Cl)CC1 [Example 245]
- Displacement Rate (%) (at 10 μM): +++ (+++ = 91-100)
- IC50: < 1.5 µM

Structure (SMILES): N[C@@H](Cc1ccc(OCCc2ccc(Cl)cc2Cl)cc1)C(=O)N1CCN(Cc2cccc(Cl)c2Cl)CC1 [Example 246]
- Displacement Rate (%) (at 10 μM): +++ (+++ = 91-100)
- IC50: < 1.5 µM
